Results reported in the CheMixHub ionic liquid set.
± gives the uncertainty stated by the source.

Test: xn = mol fraction of the nth substance listed

CC(=O)Nc1ccc(O)cc1 + O + CCCC[n+]1ccn(C)c1.[Br-]
101 kPa, frequency 0.0003 MHz
Conditions | electrical conductivity [S/m]
293.15 K, x1 = 0.0005475, x3 = 1.14e-05 | 0.0067 ± 0.0039
293.15 K, x1 = 0.0005475, x3 = 1.628e-05 | 0.0094 ± 0.004
293.15 K, x1 = 0.001082, x3 = 4.9e-06 | 0.003 ± 0.0038
298.15 K, x1 = 0.0005475, x3 = 9.05e-06 | 0.0056 ± 0.004
298.15 K, x1 = 0.0005475, x3 = 1.447e-05 | 0.0085 ± 0.004
298.15 K, x1 = 0.001082, x3 = 5.63e-06 | 0.0034 ± 0.0039
298.15 K, x1 = 0.001082, x3 = 1.162e-05 | 0.0067 ± 0.0038
298.15 K, x1 = 0.001082, x3 = 1.635e-05 | 0.0092 ± 0.0039
303.15 K, x1 = 0.0005475, x3 = 5.43e-06 | 0.0036 ± 0.0041
303.15 K, x1 = 0.0005475, x3 = 1.158e-05 | 0.0071 ± 0.0037
303.15 K, x1 = 0.001082, x3 = 5.09e-06 | 0.0032 ± 0.0039
303.15 K, x1 = 0.001082, x3 = 1.162e-05 | 0.0067 ± 0.0037
303.15 K, x1 = 0.001082, x3 = 1.617e-05 | 0.0091 ± 0.0039
308.15 K, x1 = 0.0005475, x3 = 2.71e-06 | 0.0025 ± 0.0049
308.15 K, x1 = 0.0005475, x3 = 9.41e-06 | 0.0073 ± 0.0045
308.15 K, x1 = 0.001082, x3 = 5.63e-06 | 0.0038 ± 0.0042
308.15 K, x1 = 0.001082, x3 = 1.199e-05 | 0.0075 ± 0.0038

CC(=O)Nc1ccc(O)cc1 + O + CCCC[n+]1ccn(C)c1.[Cl-]
101 kPa, frequency 0.0003 MHz
Conditions | electrical conductivity [S/m]
293.15 K, x1 = 0.0005511, x3 = 5.07e-06 | 0.0028 ± 0.0035
293.15 K, x1 = 0.0005511, x3 = 8.5e-06 | 0.0044 ± 0.0034
293.15 K, x1 = 0.0005511, x3 = 1.194e-05 | 0.0061 ± 0.0034
293.15 K, x1 = 0.0005511, x3 = 1.61e-05 | 0.0081 ± 0.0034
293.15 K, x1 = 0.0005511, x3 = 1.954e-05 | 0.0096 ± 0.0034
293.15 K, x1 = 0.001084, x3 = 4.54e-06 | 0.0025 ± 0.0031
293.15 K, x1 = 0.001084, x3 = 7.63e-06 | 0.0038 ± 0.003
293.15 K, x1 = 0.001084, x3 = 1.144e-05 | 0.0055 ± 0.003
293.15 K, x1 = 0.001084, x3 = 1.471e-05 | 0.0067 ± 0.0031
293.15 K, x1 = 0.001084, x3 = 1.907e-05 | 0.0086 ± 0.003
298.15 K, x1 = 0.0005511, x3 = 2.53e-06 | 0.0016
298.15 K, x1 = 0.0005511, x3 = 4.16e-06 | 0.0025 ± 0.0038
298.15 K, x1 = 0.0005511, x3 = 6.69e-06 | 0.0039 ± 0.0037
298.15 K, x1 = 0.0005511, x3 = 8.87e-06 | 0.005 ± 0.0037
298.15 K, x1 = 0.0005511, x3 = 1.122e-05 | 0.0062 ± 0.0037
298.15 K, x1 = 0.0005511, x3 = 1.285e-05 | 0.007 ± 0.0037
298.15 K, x1 = 0.0005511, x3 = 1.701e-05 | 0.009 ± 0.0036
298.15 K, x1 = 0.001084, x3 = 4.54e-06 | 0.0028 ± 0.0036
298.15 K, x1 = 0.001084, x3 = 8.36e-06 | 0.0046 ± 0.0035
298.15 K, x1 = 0.001084, x3 = 1.235e-05 | 0.0065 ± 0.0035
298.15 K, x1 = 0.001084, x3 = 1.962e-05 | 0.0099 ± 0.0034
303.15 K, x1 = 0.0005511, x3 = 3.44e-06 | 0.0022 ± 0.0039
303.15 K, x1 = 0.0005511, x3 = 5.79e-06 | 0.0035 ± 0.0039
303.15 K, x1 = 0.0005511, x3 = 9.23e-06 | 0.0054 ± 0.0038
303.15 K, x1 = 0.0005511, x3 = 1.737e-05 | 0.0097 ± 0.0038
303.15 K, x1 = 0.001084, x3 = 2.72e-06 | 0.0018
303.15 K, x1 = 0.001084, x3 = 1.217e-05 | 0.0067 ± 0.0037
303.15 K, x1 = 0.001084, x3 = 1.726e-05 | 0.0092 ± 0.0037
308.15 K, x1 = 0.0005511, x3 = 3.98e-06 | 0.0028 ± 0.0043
308.15 K, x1 = 0.0005511, x3 = 7.6e-06 | 0.0049 ± 0.0042
308.15 K, x1 = 0.0005511, x3 = 1.031e-05 | 0.0065 ± 0.0041
308.15 K, x1 = 0.001084, x3 = 4.18e-06 | 0.0028 ± 0.0041
308.15 K, x1 = 0.001084, x3 = 8.36e-06 | 0.005 ± 0.004
308.15 K, x1 = 0.001084, x3 = 1.235e-05 | 0.0072 ± 0.004
308.15 K, x1 = 0.001084, x3 = 1.689e-05 | 0.0097 ± 0.004

CC[n+]1ccn(C)c1.O=S(=O)([N-]S(=O)(=O)C(F)(F)F)C(F)(F)F + O=C1CCCO1
100 kPa, frequency 0.005 MHz
Conditions | electrical conductivity [S/m]
293.15 K, x2 = 0 | 0.774 ± 0.023
293.15 K, x2 = 0.3005 | 1.17 ± 0.035
293.15 K, x2 = 0.5101 | 1.47 ± 0.044
293.15 K, x2 = 0.9005 | 1.58 ± 0.048
293.15 K, x2 = 0.95 | 1.13 ± 0.037
298.15 K, x2 = 0.2073 | 1.19 ± 0.036
303.15 K, x2 = 0 | 1.06 ± 0.032
303.15 K, x2 = 0.2073 | 1.34 ± 0.04
303.15 K, x2 = 0.3005 | 1.47 ± 0.044
303.15 K, x2 = 0.5101 | 1.79 ± 0.054
303.15 K, x2 = 0.7 | 2.07 ± 0.062
303.15 K, x2 = 0.7994 | 2.09 ± 0.063
303.15 K, x2 = 0.8498 | 2.06 ± 0.062
303.15 K, x2 = 0.95 | 1.32 ± 0.043
308.15 K, x2 = 0 | 1.2 ± 0.036
308.15 K, x2 = 0.7994 | 2.25 ± 0.068
313.15 K, x2 = 0 | 1.35 ± 0.041
313.15 K, x2 = 0.3005 | 1.77 ± 0.053
318.15 K, x2 = 0.2073 | 1.82 ± 0.055
318.15 K, x2 = 0.5101 | 2.31 ± 0.069
318.15 K, x2 = 0.95 | 1.59 ± 0.052
323.15 K, x2 = 0.2073 | 2.04 ± 0.061
323.15 K, x2 = 0.6 | 2.69 ± 0.081

CC[n+]1ccn(C)c1.O=S(=O)([N-]S(=O)(=O)C(F)(F)F)C(F)(F)F + O=C1OCCO1
100 kPa, x2 = 0
Conditions | viscosity [mPa·s]
383.15 K | 4.2 ± 0.4
393.15 K | 3.7 ± 0.4

C[N+](C)(C)Cc1ccccc1.[Cl-] + O=C([O-])C1=NN(c2ccc(S(=O)(=O)[O-])cc2)C(=O)C1N=Nc1ccc(S(=O)(=O)[O-])cc1.[Na+].[Na+].[Na+] + O
electrical conductivity [S/m], 101.3 kPa, frequency 0.001 MHz
Conditions | 298.15 K | 308.15 K | 318.15 K
x2 = 0, x1 = 1.802e-05 | 0.0137 ± 0.0052 | 0.0183 ± 0.0062 | 0.0233 ± 0.0077
x2 = 0, x1 = 5.406e-05 | 0.0295 ± 0.0056 | 0.0398 ± 0.0071 | 0.0456 ± 0.0084
x2 = 0, x1 = 9.009e-05 | 0.0457 ± 0.0069 | 0.0565 ± 0.0079 | 0.0643 ± 0.0094

viscosity [mPa·s], 101.3 kPa
Conditions | 298.15 K | 308.15 K | 318.15 K
x2 = 0, x1 = 1.802e-05 | 0.88 ± 0.045 | 0.726 ± 0.044 | 0.611 ± 0.044
x2 = 0, x1 = 5.406e-05 | 0.897 ± 0.045 | 0.747 ± 0.044 | 0.627 ± 0.044
x2 = 0, x1 = 9.009e-05 | 0.914 ± 0.045 | 0.766 ± 0.045 | 0.646 ± 0.044

C[N+](C)(C)Cc1ccccc1.[Cl-] + O=C([O-])c1ccccc1.[Na+] + O
viscosity [mPa·s], 100 kPa
Conditions | 298.15 K | 303.15 K | 308.15 K | 313.15 K | 318.15 K
x1 = 9.698e-05, x2 = 0.001545 | 0.924 ± 0.02 | 0.835 ± 0.018 | 0.753 ± 0.017 | 0.654 ± 0.015 | 0.566 ± 0.013
x1 = 9.701e-05, x2 = 0.00127 | 0.919 ± 0.02 | 0.829 ± 0.018 | 0.748 ± 0.017 | 0.65 ± 0.015 | 0.562 ± 0.013
x1 = 9.703e-05, x2 = 0.0009982 | 0.913 ± 0.02 | 0.823 ± 0.018 | 0.742 ± 0.017 | 0.645 ± 0.015 | 0.558 ± 0.013
x1 = 9.706e-05, x2 = 0.0007245 | 0.906 ± 0.02 | 0.817 ± 0.018 | 0.737 ± 0.016 | 0.64 ± 0.014 | 0.552 ± 0.013
x1 = 9.709e-05, x2 = 0.0004525 | 0.901 ± 0.02 | 0.812 ± 0.018 | 0.731 ± 0.016 | 0.635 ± 0.014 | 0.548 ± 0.013
x1 = 9.711e-05, x2 = 0.0001803 | 0.896 ± 0.02 | 0.807 ± 0.018 | 0.726 ± 0.016 | 0.629 ± 0.014 | 0.544 ± 0.012
x1 = 0.0002915, x2 = 0.001548 | 0.927 ± 0.02 | 0.84 ± 0.019 | 0.758 ± 0.017 | 0.652 ± 0.015 | 0.562 ± 0.013
x1 = 0.0002916, x2 = 0.001 | 0.915 ± 0.02 | 0.827 ± 0.018 | 0.747 ± 0.017 | 0.64 ± 0.014 | 0.554 ± 0.013
x1 = 0.0002916, x2 = 0.001272 | 0.92 ± 0.02 | 0.833 ± 0.018 | 0.752 ± 0.017 | 0.647 ± 0.015 | 0.559 ± 0.013
x1 = 0.0002917, x2 = 0.0007258 | 0.909 ± 0.02 | 0.821 ± 0.018 | 0.74 ± 0.016 | 0.637 ± 0.014 | 0.55 ± 0.013
x1 = 0.0002918, x2 = 0.0004533 | 0.902 ± 0.02 | 0.816 ± 0.018 | 0.735 ± 0.016 | 0.631 ± 0.014 | 0.544 ± 0.012
x1 = 0.0002919, x2 = 0.0001807 | 0.898 ± 0.02 | 0.812 ± 0.018 | 0.731 ± 0.016 | 0.626 ± 0.014 | 0.54 ± 0.012
x1 = 0.0004867, x2 = 0.001551 | 0.932 ± 0.02 | 0.843 ± 0.019 | 0.76 ± 0.017 | 0.665 ± 0.015 | 0.577 ± 0.013
x1 = 0.0004868, x2 = 0.001275 | 0.926 ± 0.02 | 0.837 ± 0.018 | 0.754 ± 0.017 | 0.66 ± 0.015 | 0.573 ± 0.013
x1 = 0.0004869, x2 = 0.001002 | 0.919 ± 0.02 | 0.831 ± 0.018 | 0.748 ± 0.017 | 0.655 ± 0.015 | 0.569 ± 0.013
x1 = 0.0004871, x2 = 0.0007272 | 0.913 ± 0.02 | 0.826 ± 0.018 | 0.743 ± 0.017 | 0.649 ± 0.015 | 0.563 ± 0.013
x1 = 0.0004872, x2 = 0.0004542 | 0.908 ± 0.02 | 0.82 ± 0.018 | 0.737 ± 0.016 | 0.645 ± 0.015 | 0.559 ± 0.013
x1 = 0.0004873, x2 = 0.000181 | 0.903 ± 0.02 | 0.815 ± 0.018 | 0.733 ± 0.016 | 0.64 ± 0.014 | 0.555 ± 0.013
